Experimental data taken from PubChem BioAssay (NCI).
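How tested: cells in 96-well plates exposed to compound for 48 hours at five concentrations. GI50 marks 50% less growth. TGI: total growth inhibition.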

How the values were obtained:
Assay in all cases: NCI-60 cell line screen, 48 h
SNB-19 CNS = system: SNB-19 CNS
KM12 colon = system: KM12 colon
SK-MEL-28 melanoma = system: SK-MEL-28 melanoma
T-47D breast = system: T-47D breast
SK-MEL-5 melanoma = system: SK-MEL-5 melanoma
HCT-116 colon = system: HCT-116 colon
SR leukemia = system: SR leukemia
HL-60(TB) leukemia = system: HL-60(TB) leukemia
M14 melanoma = system: M14 melanoma
MALME-3M melanoma = system: MALME-3M melanoma
RPMI-8226 leukemia = system: RPMI-8226 leukemia
RXF 393 renal = system: RXF 393 renal
786-0 renal = system: 786-0 renal
LOX IMVI melanoma = system: LOX IMVI melanoma
SK-MEL-2 melanoma = system: SK-MEL-2 melanoma
CAKI-1 renal = system: CAKI-1 renal
ACHN renal = system: ACHN renal
HOP-62 NSCLC = system: HOP-62 NSCLC
OVCAR-8 ovarian = system: OVCAR-8 ovarian
PC-3 prostate = system: PC-3 prostate
SNB-75 CNS = system: SNB-75 CNS
HS 578T breast = system: HS 578T breast
UACC-62 melanoma = system: UACC-62 melanoma
HCT-15 colon = system: HCT-15 colon
OVCAR-5 ovarian = system: OVCAR-5 ovarian
OVCAR-3 ovarian = system: OVCAR-3 ovarian
UO-31 renal = system: UO-31 renal
HT29 colon = system: HT29 colon
SW-620 colon = system: SW-620 colon
TK-10 renal = system: TK-10 renal
NCI-H460 lung = system: NCI-H460 lung
IGROV1 ovarian = system: IGROV1 ovarian
HOP-92 NSCLC = system: HOP-92 NSCLC
HCC-2998 colon = system: HCC-2998 colon
SK-OV-3 ovarian = system: SK-OV-3 ovarian
MOLT-4 leukemia = system: MOLT-4 leukemia
U251 CNS = system: U251 CNS
MCF7 breast = system: MCF7 breast
MDA-MB-231 breast = system: MDA-MB-231 breast
NCI/ADR-RES ovarian = system: NCI/ADR-RES ovarian
SF-295 CNS = system: SF-295 CNS
UACC-257 melanoma = system: UACC-257 melanoma
DU-145 prostate = system: DU-145 prostate
SF-268 CNS = system: SF-268 CNS
CCRF-CEM leukemia = system: CCRF-CEM leukemia
NCI-H226 lung = system: NCI-H226 lung
COLO 205 colon = system: COLO 205 colon
BT-549 breast = system: BT-549 breast
A549 NSCLC = system: A549 NSCLC
K-562 leukemia = system: K-562 leukemia
NCI-H522 lung = system: NCI-H522 lung
A498 renal = system: A498 renal
NCI-H23 lung = system: NCI-H23 lung
EKVX NSCLC = system: EKVX NSCLC
SF-539 CNS = system: SF-539 CNS
OVCAR-4 ovarian = system: OVCAR-4 ovarian
SN12C renal = system: SN12C renal
MDA-MB-435 = system: MDA-MB-435

Question: How did the GI50 (SNB-19 CNS) turn out when `NC(=O)c1ccccc1NC(=O)c1ccccc1Cl` was run?
Answer: > 100 µM

Question: And the TGI (SNB-19 CNS)?
Answer: > 100 µM

Question: What about the GI50 (KM12 colon) of the same compound?
Answer: > 100 µM

Question: And the TGI (KM12 colon)?
Answer: > 100 µM

Question: What about the GI50 (SK-MEL-28 melanoma) of the same compound?
Answer: > 100 µM

Question: What about the TGI (SK-MEL-28 melanoma) of the same compound?
Answer: > 100 µM

Question: What about the GI50 (T-47D breast) of the same compound?
Answer: > 100 µM

Question: And the TGI (T-47D breast)?
Answer: > 100 µM

Question: What about the GI50 (SK-MEL-5 melanoma) of the same compound?
Answer: > 100 µM

Question: What about the TGI (SK-MEL-5 melanoma) of the same compound?
Answer: > 100 µM

Question: And the GI50 (HCT-116 colon)?
Answer: > 100 µM

Question: And the TGI (HCT-116 colon)?
Answer: > 100 µM

Question: What about the GI50 (SR leukemia) of the same compound?
Answer: > 100 µM

Question: What about the TGI (SR leukemia) of the same compound?
Answer: > 100 µM

Question: What about the GI50 (HL-60(TB) leukemia) of the same compound?
Answer: > 100 µM

Question: What about the TGI (HL-60(TB) leukemia) of the same compound?
Answer: > 100 µM

Question: And the GI50 (M14 melanoma)?
Answer: > 100 µM

Question: What about the TGI (M14 melanoma) of the same compound?
Answer: > 100 µM

Question: And the GI50 (MALME-3M melanoma)?
Answer: > 100 µM

Question: And the TGI (MALME-3M melanoma)?
Answer: > 100 µM

Question: What about the GI50 (RPMI-8226 leukemia) of the same compound?
Answer: > 100 µM

Question: What about the TGI (RPMI-8226 leukemia) of the same compound?
Answer: > 100 µM

Question: What about the GI50 (RXF 393 renal) of the same compound?
Answer: > 100 µM

Question: What about the TGI (RXF 393 renal) of the same compound?
Answer: > 100 µM

Question: And the GI50 (786-0 renal)?
Answer: > 100 µM

Question: And the TGI (786-0 renal)?
Answer: > 100 µM

Question: And the GI50 (LOX IMVI melanoma)?
Answer: > 100 µM

Question: And the TGI (LOX IMVI melanoma)?
Answer: > 100 µM

Question: What about the GI50 (SK-MEL-2 melanoma) of the same compound?
Answer: > 100 µM

Question: And the TGI (SK-MEL-2 melanoma)?
Answer: > 100 µM

Question: What about the GI50 (CAKI-1 renal) of the same compound?
Answer: > 100 µM

Question: What about the TGI (CAKI-1 renal) of the same compound?
Answer: > 100 µM

Question: And the GI50 (ACHN renal)?
Answer: > 100 µM

Question: What about the TGI (ACHN renal) of the same compound?
Answer: > 100 µM

Question: What about the GI50 (HOP-62 NSCLC) of the same compound?
Answer: > 100 µM

Question: What about the TGI (HOP-62 NSCLC) of the same compound?
Answer: > 100 µM

Question: And the GI50 (OVCAR-8 ovarian)?
Answer: > 100 µM

Question: What about the TGI (OVCAR-8 ovarian) of the same compound?
Answer: > 100 µM

Question: And the GI50 (PC-3 prostate)?
Answer: > 100 µM

Question: What about the TGI (PC-3 prostate) of the same compound?
Answer: > 100 µM

Question: And the GI50 (SNB-75 CNS)?
Answer: > 100 µM

Question: What about the TGI (SNB-75 CNS) of the same compound?
Answer: > 100 µM

Question: What about the GI50 (HS 578T breast) of the same compound?
Answer: > 100 µM

Question: And the TGI (HS 578T breast)?
Answer: > 100 µM

Question: And the GI50 (UACC-62 melanoma)?
Answer: > 100 µM

Question: What about the TGI (UACC-62 melanoma) of the same compound?
Answer: > 100 µM

Question: And the GI50 (HCT-15 colon)?
Answer: > 100 µM

Question: And the TGI (HCT-15 colon)?
Answer: > 100 µM

Question: And the GI50 (OVCAR-5 ovarian)?
Answer: > 100 µM

Question: What about the TGI (OVCAR-5 ovarian) of the same compound?
Answer: > 100 µM

Question: What about the GI50 (OVCAR-3 ovarian) of the same compound?
Answer: > 100 µM

Question: And the TGI (OVCAR-3 ovarian)?
Answer: > 100 µM

Question: What about the GI50 (UO-31 renal) of the same compound?
Answer: > 100 µM

Question: And the TGI (UO-31 renal)?
Answer: > 100 µM

Question: What about the GI50 (HT29 colon) of the same compound?
Answer: > 100 µM

Question: And the TGI (HT29 colon)?
Answer: > 100 µM

Question: What about the GI50 (SW-620 colon) of the same compound?
Answer: > 100 µM

Question: What about the TGI (SW-620 colon) of the same compound?
Answer: > 100 µM

Question: And the GI50 (TK-10 renal)?
Answer: > 100 µM

Question: And the TGI (TK-10 renal)?
Answer: > 100 µM

Question: And the GI50 (NCI-H460 lung)?
Answer: > 100 µM

Question: And the TGI (NCI-H460 lung)?
Answer: > 100 µM

Question: What about the GI50 (IGROV1 ovarian) of the same compound?
Answer: > 100 µM

Question: And the TGI (IGROV1 ovarian)?
Answer: > 100 µM

Question: What about the GI50 (HOP-92 NSCLC) of the same compound?
Answer: 60.7 µM

Question: What about the TGI (HOP-92 NSCLC) of the same compound?
Answer: > 100 µM

Question: And the GI50 (HCC-2998 colon)?
Answer: > 100 µM

Question: And the TGI (HCC-2998 colon)?
Answer: > 100 µM

Question: What about the GI50 (SK-OV-3 ovarian) of the same compound?
Answer: > 100 µM

Question: And the TGI (SK-OV-3 ovarian)?
Answer: > 100 µM

Question: And the GI50 (MOLT-4 leukemia)?
Answer: > 100 µM

Question: What about the TGI (MOLT-4 leukemia) of the same compound?
Answer: > 100 µM

Question: And the GI50 (U251 CNS)?
Answer: > 100 µM

Question: And the TGI (U251 CNS)?
Answer: > 100 µM

Question: And the GI50 (MCF7 breast)?
Answer: > 100 µM

Question: And the TGI (MCF7 breast)?
Answer: > 100 µM

Question: And the GI50 (MDA-MB-231 breast)?
Answer: > 100 µM

Question: And the TGI (MDA-MB-231 breast)?
Answer: > 100 µM

Question: What about the GI50 (NCI/ADR-RES ovarian) of the same compound?
Answer: > 100 µM

Question: And the TGI (NCI/ADR-RES ovarian)?
Answer: > 100 µM

Question: And the GI50 (SF-295 CNS)?
Answer: > 100 µM

Question: And the TGI (SF-295 CNS)?
Answer: > 100 µM

Question: And the GI50 (UACC-257 melanoma)?
Answer: > 100 µM

Question: And the TGI (UACC-257 melanoma)?
Answer: > 100 µM

Question: And the GI50 (DU-145 prostate)?
Answer: > 100 µM

Question: And the TGI (DU-145 prostate)?
Answer: > 100 µM

Question: And the GI50 (SF-268 CNS)?
Answer: > 100 µM

Question: What about the TGI (SF-268 CNS) of the same compound?
Answer: > 100 µM

Question: And the GI50 (CCRF-CEM leukemia)?
Answer: > 100 µM

Question: And the TGI (CCRF-CEM leukemia)?
Answer: > 100 µM

Question: And the GI50 (NCI-H226 lung)?
Answer: > 100 µM

Question: And the TGI (NCI-H226 lung)?
Answer: > 100 µM

Question: And the GI50 (COLO 205 colon)?
Answer: > 100 µM

Question: And the TGI (COLO 205 colon)?
Answer: > 100 µM

Question: And the GI50 (BT-549 breast)?
Answer: > 100 µM

Question: What about the TGI (BT-549 breast) of the same compound?
Answer: > 100 µM

Question: And the GI50 (A549 NSCLC)?
Answer: > 100 µM

Question: And the TGI (A549 NSCLC)?
Answer: > 100 µM

Question: And the GI50 (K-562 leukemia)?
Answer: > 100 µM

Question: And the TGI (K-562 leukemia)?
Answer: > 100 µM

Question: What about the GI50 (NCI-H522 lung) of the same compound?
Answer: > 100 µM

Question: And the TGI (NCI-H522 lung)?
Answer: > 100 µM

Question: And the GI50 (A498 renal)?
Answer: 56.2 µM

Question: And the TGI (A498 renal)?
Answer: > 100 µM

Question: And the GI50 (NCI-H23 lung)?
Answer: > 100 µM

Question: And the TGI (NCI-H23 lung)?
Answer: > 100 µM

Question: And the GI50 (EKVX NSCLC)?
Answer: > 100 µM

Question: What about the TGI (EKVX NSCLC) of the same compound?
Answer: > 100 µM

Question: And the GI50 (SF-539 CNS)?
Answer: > 100 µM

Question: And the TGI (SF-539 CNS)?
Answer: > 100 µM

Question: And the GI50 (OVCAR-4 ovarian)?
Answer: > 100 µM

Question: And the TGI (OVCAR-4 ovarian)?
Answer: > 100 µM

Question: And the GI50 (SN12C renal)?
Answer: > 100 µM

Question: And the TGI (SN12C renal)?
Answer: > 100 µM

Question: And the GI50 (MDA-MB-435)?
Answer: 58.9 µM

Question: What about the TGI (MDA-MB-435) of the same compound?
Answer: > 100 µM
